{
  "source": "patent US7514254B2",
  "about": "“Plant-derived alkaline alpha-galactosidase” (The State of Israel, Ministry of Agriculture & Rural …, priority 1998, dated 2009)",
  "key": {"[1]": {"test_system": "Cucurbita pepo leaf alkaline alpha-galactosidase (\"LIV\" enzyme)", "assay": "Substrate kinetics of Cucurbita pepo leaf alkaline alpha-galactosidase (Gaudreault and Webb)", "assay_type": "biochemical", "details": "calculated for prior art \"LIV\" enzyme of Gaudreault and Webb"}, "[2]": {"test_system": "melon (Cucumis melo) fruit acid form alpha-galactosidase", "assay": "Inhibition of acid alpha-galactosidase by alternative substrate (galactose release)", "assay_type": "biochemical, muskmelon (Cucumis melo L. cv C-8)", "details": "80 mM stachyose added to 10 mM raffinose", "method": "For routine analysis and monitoring the activity in the purification steps, alpha-galactosidase was assayed as described by Smart and Pharr (“Characterization of alpha-galactosidase from cucumber leaves”, Plant Physiology, 66:731-734, 1980), using p-nitrophenyl alpha-galactoside (pNPG) as substrate. […] The reaction was terminated after 10 min by adding 1 ml of 5% (w/v) Na2CO3 and activity expressed as nmol nitrophenol per min as measured at 410 nm. […] The substrate specificity of the alpha-galactosidases was tested with pNPG, stachyose, raffinose, melibiose or guar gum (Sigma)."}, "[3]": {"target": "T1, melon (Cucumis melo) fruit alkaline alpha-galactosidase Form II (Cucumis melo, UniProt Q84NI6)", "T1 construct": "native 102 kDa, denatured 92 kDa; assayed at pH 7.5", "T1 sequence (Q84NI6 1-772)": "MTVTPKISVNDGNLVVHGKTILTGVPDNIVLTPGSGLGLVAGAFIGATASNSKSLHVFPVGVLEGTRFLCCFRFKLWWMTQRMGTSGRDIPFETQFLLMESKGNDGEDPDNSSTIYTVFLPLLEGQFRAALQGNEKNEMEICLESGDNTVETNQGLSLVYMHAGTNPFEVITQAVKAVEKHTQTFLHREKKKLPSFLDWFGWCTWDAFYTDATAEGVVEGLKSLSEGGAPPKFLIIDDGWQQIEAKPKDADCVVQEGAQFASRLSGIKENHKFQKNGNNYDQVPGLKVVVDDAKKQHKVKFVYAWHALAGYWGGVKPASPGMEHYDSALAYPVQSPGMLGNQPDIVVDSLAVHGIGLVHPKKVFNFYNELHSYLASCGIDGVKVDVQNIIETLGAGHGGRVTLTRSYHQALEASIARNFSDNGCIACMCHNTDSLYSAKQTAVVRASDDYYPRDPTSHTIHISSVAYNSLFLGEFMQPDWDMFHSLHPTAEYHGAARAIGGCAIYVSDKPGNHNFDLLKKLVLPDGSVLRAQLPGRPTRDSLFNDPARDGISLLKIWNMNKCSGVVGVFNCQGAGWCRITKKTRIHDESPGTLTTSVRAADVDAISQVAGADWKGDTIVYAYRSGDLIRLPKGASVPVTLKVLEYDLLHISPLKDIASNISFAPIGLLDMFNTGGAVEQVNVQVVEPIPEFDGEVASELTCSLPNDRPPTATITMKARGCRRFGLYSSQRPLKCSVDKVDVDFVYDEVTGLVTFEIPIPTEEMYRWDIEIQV", "assay": "Substrate kinetics (Lineweaver-Burk) of alkaline alpha-galactosidase Form II", "assay_type": "biochemical, muskmelon (Cucumis melo L. cv C-8)", "method": "For routine analysis and monitoring the activity in the purification steps, alpha-galactosidase was assayed as described by Smart and Pharr (“Characterization of alpha-galactosidase from cucumber leaves”, Plant Physiology, 66:731-734, 1980), using p-nitrophenyl alpha-galactoside (pNPG) as substrate. Reaction was initiated by adding 50 μl enzyme aliquot to either 200 μl 100 mM pH 5.5 McIlvaine buffer or 100 mM pH 7.5 HEPES buffer, containing 5 mM pNPG at 35 C. The reaction was terminated after 10 min by adding 1 ml of 5% (w/v) Na2CO3 and activity expressed as nmol nitrophenol per min as measured at 410 nm. […] The assay was started by adding 50 μl enzyme preparation at 35 C and terminated after 10 to 20 min by 2 min boiling.\nThe fractions from the DEAE-Sepharose chromatography which were active at pH 7.5 were pooled and dialyzed against buffer A for 12 h prior to loading onto an HPLC ion exchange chromatography column (Mono-Q HR 5/5, Pharmacia, Uppsala, Sweden), previously equilibrated with buffer A. Bound proteins were eluted with a linear gradient of 0.1 to 0.45 M NaCl and the active fractions were detected using pNPG as substrate at pH 7.5 as described above. […] For the further purification of Form II the active fractions of the peak II were chromatographed on hydrophobic interaction chromatography. The fractions were pooled, brought to 1 M (NH4)2SO4 and loaded on to a hydrophobic interaction column (phenyl-Sepharose CL-4B, 0.5×12 cm, Pharmacia, Uppsala, Sweden) previously equilibrated with buffer A containing 1 M (NH4)2SO4. The protein was eluted with a reverse stepwise gradient from 1 to 0 M (NH4)2SO4 with 50 mM intervals in buffer A. Fractions containing the activity peak were collected and dialyzed for 12 h against buffer A and the dialysate was concentrated by reverse dialysis against solid sucrose. The enzyme, partially purified by hydrophobic interaction chromatography, was used for the characterization of Form II. The active fractions from the hydrophobic interaction column were further purified. Active fractions were separated electrophoretically using a Mini Prep Cell (Bio-Rad Laboratories, Hercules, Calif.) for discontinuous native-PAGE with 7% polyacrylamide, according to manufacturer's instructions. Fractions (0.25 ml/fraction) were assayed at pH 7.5 with pNPG as substrate for the activity. The active fractions were pooled, concentrated by Vivaspin Concentrator (Vivascience LTD, Lincoln, England), and run in a 8% SDS-PAGE. Proteins in the SDS-PAGE were identified using Coomassie Blue staining."}},
  "data": [
    {"smiles": "OC[C@H]1O[C@H](OC[C@H]2O[C@H](OC[C@H]3O[C@H](O[C@]4(CO)O[C@H](CO)[C@@H](O)[C@@H]4O)[C@H](O)[C@@H](O)[C@@H]3O)[C@H](O)[C@@H](O)[C@H]2O)[C@H](O)[C@@H](O)[C@H]1O", "note": "[Stachyose, O-alpha-D-galactopyranosyl-(1-6)-O-alpha-D-galactopyranosyl-(1-6)-O-alpha-D-glucopyranosyl-(1-2)-beta-D-fructofuranoside]", "values": [
      {"measurement": "Vmax/Km ratio", "setting": "[1]", "value": 0.65},
      {"measurement": "inhibition by excess stachyose (free galactose release)", "setting": "[2]", "value": 45, "unit": "%"},
      {"measurement": "Vmax/Km ratio", "setting": "[3]", "value": 0.61},
      {"measurement": "Vmax", "setting": "[3]; Lineweaver-Burk", "value": 2.2, "unit": "μmol mg^−1 protein min^−1"}
    ]}
  ]
}
